This is an account of results in patent publication US20250034127A1, “AUTOPHAGY INDUCING COMPOUNDS AND USES THEREOF, IN PARTICULAR FOR DISEASES OF THE CNS” (Samsara Therapeutics Inc., priority 2021, published 2025).

The subject of this assay is primary spinal cord lower motor neurons (MNs) from SOD1 G93A Tg rats. Description: Cellular model of Amyotrophic Lateral Sclerosis (glutamate injury). The class given is cell-based, rat. The method, then: Compounds 157 (particularly) preferred), 185 and 196 were selected example compounds if this invention to evaluate in this model. This model (run by Neuro-Sys SAS, France) evaluates the protective effects of test compounds on primary spinal cord lower motor neurons (MNs) from SOD1 G93A Tg rats, after a glutamate injury. The MNs are pre-treated with the test compounds for 1 hour prior to exposure to glutamate, and readouts are measured 24 hours later. This model functions as an in vitro model of Amyotrophic Lateral Sclerosis. […] Any substances which can attenuate one or more of these effects can be considered to have protective effects in the model and may be useful as a new therapeutic agent for the treatment or prevention of ALS.
Genotyping of SOD1 Tg embryos: Pregnant female rat SODIG93A (Sprague Dawley, Taconic), of 14 days of gestation were obtained fromTaconic Bioscience. On the day of the dissection (from pregnant females at 14 days of gestation), a piece of each embryo brain (˜3 mm) was placed in a 2 mL tube free DNase with a new scalpel. The DNA was extracted with the SYBR Green Extract-N-Amp tissue PCR kit (Sigma Aldrich). Briefly, 120 μL of extraction solution was put on each piece of embryo heads. Then, they were incubated for 10 min at room temperature. At the end of this incubation period, the heads were incubated for 5 min at 95° C. Immediately after this last incubation, 100 μL of neutralizing solution was added; each DNA extract was diluted at 1/40 and stored at +4° C. until use. SOD1G93A gene was determined using genomic fragment with human SOD1 primers (5′-[…]-3′ (SEQ ID NO: 1); 5′-[…]-3′ (SEQ ID NO: 2)). The SOD1 primers were diluted at 3 μM in sterile ultrapure water. Briefly, a mix for PCR was prepared with ultrapure water (4 μL per sample), primer at 3 μM (2 μL per sample) and Master Mix (10 μL per sample). In a PCR 96 wells plate, 16 μL of PCR mix was added in each well. 4 μL of each diluted DNA was added according to a plan deposit. The RT-PCR was ran using the CFX96 Biorad RT-PCR system, using the following program: Initial denaturation (95° C., 20 sec)/45 cycles (95° C., 10 sec; 65° C., 10 sec; 72° C., 30 sec)/Melt curve (95° C., 15 sec; 64° C., 1 min; 90° C., 30 sec; 60° C. 15 sec). The amplification plots and melt curves were analyzed with the Biorad software. The results for each sample were compared to negative control (ultrapure water) and to the positive control (DNA from Tg embryos).
Rat spinal cord motor neurons (MNs) were be cultured as described by Wang et al. 2013 and Boussicault et al., 2020. Briefly, pregnant female rats of 14 days gestation (Sprague Dawley; Taconic) were killed using a deep anesthesia with CO2 chamber and a cervical dislocation. Then, fetuses were removed from the uterus and immediately placed in ice-cold L15 Leibovitz medium with a 2% penicillin (10,000 U/ml) and streptomycin (10 mg/ml) solution (PS) and 1% bovine serum albumin (BSA).
Spinal cords were treated for 20 min at 37° C. with a trypsin-EDTA solution at a final concentration of 0.05% trypsin and 0.02% EDTA. The dissociation was stopped by addition of Dulbecco's modified Eagle's medium (DMEM) with 4.5 g/liter of glucose, containing DNAse I grade II (final concentration 0.5 mg/mL) and 10% fetal calf serum (FCS). Cells were mechanically dissociated by three forced passages through the tip of a 10-ml pipette. Cells were then centrifuged at 515×g for 10 min at 4° C. The supernatant was discarded, and the pellet was resuspended in a defined culture medium consisting of Neurobasal medium with a 2% solution of B27 supplement, 2 mmol/liter of L-glutamine, 2% of PS solution, and 10 ng/ml of brain-derived neurotrophic factor (BDNF). Viable cells were counted in a Neubauer cytometer, using the trypan blue exclusion test. The cells were seeded at a density of 20,000 per well in 96-well plates precoated with poly-L-lysine and will be cultured at 37° C. in an air (95%)—CO2 (5%) incubator. […]

SMILES strings stand for the structures.

Take `CCN1CCC(N(C)C(=O)c2csc(-c3cnn(-c4ccccc4)c3)n2)CC1` [Compound 196, N-(1-ethylpiperidin-4-yl)-N-methyl-2-(1-phenyl-1H-pyrazol-4-yl)-1,3-thiazole-4-carboxamide]: the “effects in the in vitro model of ALS” value is listed as “positive effects”. Moreover, the “abnormal TDP43 accumulation in the cytoplasm resulting from glutamate injury” value (0.5 μM, 1 μM and 10 μM) was “fully abolished”. Further, the “increase in neurite network length” value (10 μM, compared to glutamate injury alone) stood at 16%. For the same compound, the “increase in number of motor neurons” value (1 and 10 μM, compared to glutamate injury alone) is recorded as > 10%.
